Results from patent US6440451B1, “Use of crataegus formulations for prophylaxis and treatment of neoplastic diseases” (Nativia Health Products GmbH, priority 1998, dated 2002).

Key:
HT-29 = assay: MTT assay, HT-29 colon carcinoma cells; assay type: cell-based, human; conditions: 72 hours
Text: (§1) In the context of the present invention, five human tumour cell lines (four carcinoma cell lines, one sarcoma cell line) and one animal carcinoma cell line (cf. tab. 2) were investigated as examples. All the cell lines were kept in permanent cell culture in cell culture bottles with 75 cm^2 base area. They were subjected to passage once a week, and the medium was changed twice a week. At the start of the experiment (day 0), the cells were sown in cell culture plates with 96 depressions (96 well plates) in 100 μl medium per well (=0.32 cm^2) in each case, with the density shown in table 2. On days 1 and 4, the medium of all the cells was changed, and after the change of medium on day 4, incubation with the active substances (Crataegus formulations, Gentiana, superoxide dismutase, 5-fluorouracil and methotrexate; see below) or the solvents as controls started immediately. The effects of the active substances were measured on day 7 (that is to say after incubation for 72 hours) with two different methods, the so-called MTT assay and the SRB assay (see tab. 2).
(§2) MTT assay: The MTT assay (T. Mossman, J. Immunoll. Methods 65 (1983) 55-63) is based on measurement of the metabolic activity of living cells. The substance 3-(4,5-dimethylthiazol-2-yl)-2,5-diphenyltetrazolium bromide (MTT), which the cells reduce intracellularly to the water-insoluble dyestuff formazan, is made available to the cells. This reduction takes place only in metabolically active cells, so that this assay detects exclusively living cells. At the measurement time, in each case 100 μl MTT solution (4 mg/ml PBS, phosphate buffered saline) are added to the cells in 100 μl medium. Incubation for two hours at 37° C. then takes place. Thereafter, the medium is sucked off, so that the dyed living cells adhering to the base of the culture flask remain. These and the dyestuff are dissolved with 100 μl DMSO (dimethylsulphoxide) in the course of 5 minutes, with vigorous shaking. The extinction is then determined photometrically at 570 nm. Its linearity in the range used here, and also its correlation to the number of living cells (counted under the microscope) were detected in preliminary experiments. […] For the evaluation, ΔE was determined by subtraction of the extinction in the controls with PBS from the measurement values with MTT.
(§3) The data shown in table 3 are the means of three individual measurements. ΔE measured under the action of the various test substances has additionally been shown in percent of ΔE of the particular solvent controls. […] At the time of addition of the test substance (day 4), the cells had already reached approx. 50% of the density, and therefore also 50% of the ΔE to be measured.

CMT-93 = assay: SRB assay, CMT-93 rectum carcinoma cells; assay type: cell-based, mouse; conditions: 72 hours
Text: as §1
SRB assay: The SRB assay (P. Skehan et al., J. Natl. Cancer Inst. 82 (1990) 1107-1112) is based on binding of the dyestuff sulphorhodamine B (SRB) to basic proteins. The principle specifies fixing, with the aid of trichloroacetic acid, the tumour cells adhering to the culture vessel base and thereafter dyeing their protein. This dyeing is then also determined photometrically. Non-living cells are distinguished in that they first detach themselves from the cell culture base and then dissolve in the culture medium. This method therefore also measures only the living cells in a cell culture. The cells growing in 100 μl medium are first fixed with 25 μl 50% cold trichloroacetic acid at 4° C. After incubation for one hour at 4° C., all the non-fixed constituents are removed and those which remain are rinsed five times with water. After drying in air, 200 μl 0.4% sulphorhodamine B solution in 1% acetic acid or, in the photometric controls, only acetic acid,. are added. […] The extinction was measured at 570 nm or, if the OD (optical density) lay outside the linear range, at 492 nm (for CMT-93 cells). For the evalution, ΔE was determined by subtraction of the extinction in the controls with acetic acid from the measurement values with SRB.
as §3

Caki-1 = assay: MTT assay, Caki-1 kidney carcinoma cells; assay type: cell-based, human; conditions: 72 hours
Text: as §1, §2, §3

SAOS-2 = assay: MTT assay, SAOS-2 osteosarcoma cells; assay type: cell-based, human; conditions: 72 hours
Text: as §1, §2, §3

SKMEL-2 = assay: SRB assay, SK-MEL-2 malignant melanoma cells; assay type: cell-based, human; conditions: for % control / dE mean: SKMEL-2, 72 hours
Text: as §1
SRB assay: The SRB assay (P. Skehan et al., J. Natl. Cancer Inst. 82 (1990) 1107-1112) is based on binding of the dyestuff sulphorhodamine B (SRB) to basic proteins. The principle specifies fixing, with the aid of trichloroacetic acid, the tumour cells adhering to the culture vessel base and thereafter dyeing their protein. This dyeing is then also determined photometrically. Non-living cells are distinguished in that they first detach themselves from the cell culture base and then dissolve in the culture medium. This method therefore also measures only the living cells in a cell culture. The cells growing in 100 μl medium are first fixed with 25 μl 50% cold trichloroacetic acid at 4° C. After incubation for one hour at 4° C., all the non-fixed constituents are removed and those which remain are rinsed five times with water. After drying in air, 200 μl 0.4% sulphorhodamine B solution in 1% acetic acid or, in the photometric controls, only acetic acid,. are added. After incubation for 30 minutes at room temperature, the dyestuff solution is poured out and the culture is rinsed four times with 1% acetic acid. After removal of the rinsing solution and drying, the dyestuff adhering to the basic proteins is dissolved in 100 μl 10 mM tris-base (tris(hydroxymethyl)aminomethane) in the course of 5 minutes. The extinction was measured at 570 nm or, if the OD (optical density) lay outside the linear range, at 492 nm (for CMT-93 cells). For the evalution, ΔE was determined by subtraction of the extinction in the controls with acetic acid from the measurement values with SRB.
The data shown in table 3 are the means of three individual measurements. ΔE measured under the action of the various test substances has additionally been shown in percent of ΔE of the particular solvent controls. The control cells, which received no test substances (Crataegus formulations) but only medium or solvent, reached 100% of their density (number) as defined at the measurement time (day 7). At the time of addition of the test substance (day 4), the cells had already reached approx. 50% of the density, and therefore also 50% of the ΔE to be measured.

U373MG = assay: SRB assay, U373MG glioblastoma cells; assay type: cell-based, human
Text: In the context of the present invention, five human tumour cell lines (four carcinoma cell lines, one sarcoma cell line) and one animal carcinoma cell line (cf. tab. 2) were investigated as examples. All the cell lines were kept in permanent cell culture in cell culture bottles with 75 cm^2 base area. They were subjected to passage once a week, and the medium was changed twice a week. At the start of the experiment (day 0), the cells were sown in cell culture plates with 96 depressions (96 well plates) in 100 μl medium per well (=0.32 cm^2) in each case, with the density shown in table 2. […] [table] SRB assay: The SRB assay (P. Skehan et al., J. Natl. Cancer Inst. 82 (1990) 1107-1112) is based on binding of the dyestuff sulphorhodamine B (SRB) to basic proteins. The principle specifies fixing, with the aid of trichloroacetic acid, the tumour cells adhering to the culture vessel base and thereafter dyeing their protein. This dyeing is then also determined photometrically. Non-living cells are distinguished in that they first detach themselves from the cell culture base and then dissolve in the culture medium. This method therefore also measures only the living cells in a cell culture. The cells growing in 100 μl medium are first fixed with 25 μl 50% cold trichloroacetic acid at 4° C. After incubation for one hour at 4° C., all the non-fixed constituents are removed and those which remain are rinsed five times with water. After drying in air, 200 μl 0.4% sulphorhodamine B solution in 1% acetic acid or, in the photometric controls, only acetic acid,. are added. […] For the evalution, ΔE was determined by subtraction of the extinction in the controls with acetic acid from the measurement values with SRB. The data shown in table 3 are the means of three individual measurements. ΔE measured under the action of the various test substances has additionally been shown in percent of ΔE of the particular solvent controls. […] At the time of addition of the test substance (day 4), the cells had already reached approx. 50% of the density, and therefore also 50% of the ΔE to be measured.

[1] = system: human neuroblastoma and breast carcinoma cells; conditions: Fotsis et al., Cancer Research 57 (1997); cited from earlier work
[2] = system: human fibroblasts, keratinocytes and endothelial cells; conditions: Fotsis et al., Cancer Research 57 (1997); cited from earlier work
[3] = system: tumour cell lines investigated; assay: MTT/SRB assays, statements on all tumour cell lines investigated; assay type: cell-based; conditions: table 3
Text: as §1, with “On days 1 and 4, the medium of all the cells was changed, and after the change of medium on day 4, incubation with the active substances (Crataegus formulations, Gentiana, superoxide dismutase, 5-fluorouracil and methotrexate; see below) or the solvents as controls started immediately.” left out
MTT assay: The MTT assay (T. Mossman, J. Immunoll. Methods 65 (1983) 55-63) is based on measurement of the metabolic activity of living cells. […] The extinction is then determined photometrically at 570 nm. Its linearity in the range used here, and also its correlation to the number of living cells (counted under the microscope) were detected in preliminary experiments. […] For the evaluation, ΔE was determined by subtraction of the extinction in the controls with PBS from the measurement values with MTT. […]

[4] = U373MG, medium, 45 μg/ml, 72 hours
[5] = solvent H2O 0.10% final conc, 1 μg/ml

Molecule: O=c1[nH]cc(F)c(=O)[nH]1 [5-Fluorouracil]
- % control (HT-29; medium, 25 μg/ml): 53%
- dE mean (HT-29; medium, 25 μg/ml): 0.973
- % control (CMT-93; medium, 25 μg/ml): 63%
- dE mean (CMT-93; medium, 25 μg/ml): 0.191

Molecule: CN(Cc1cnc2nc(N)nc(N)c2n1)c1ccc(C(=O)N[C@@H](CCC(=O)O)C(=O)O)cc1 [Methotrexate]
- % control (Caki-1; medium, 45 μg/ml): 47%
- dE mean (Caki-1; medium, 45 μg/ml): 0.679
- % control (SAOS-2; medium, 45 μg/ml): 41%
- dE mean (SAOS-2; medium, 45 μg/ml): 0.259
- % control (SKMEL-2; medium, 45 μg/ml): 119%
- dE mean (SKMEL-2; medium, 45 μg/ml): 2.429
- cytostatic/cytotoxic action on SKMEL-2 cells, in words (SKMEL-2; table 3): resistance
- % control (U373MG; [4]): 135%
- dE mean (U373MG; [4]): 1.449
- cytostatic/cytotoxic action on U373MG cells, in words (U373MG; table 3): resistance

Molecule: O=c1cc(-c2ccc(O)c(O)c2)oc2cc(O[C@@H]3O[C@H](CO)[C@@H](O)[C@H](O)[C@H]3O)cc(O)c12 [luteolin-7-glucoside]
- effect on proliferation of human neuroblastoma and breast carcinoma cells [1]: inhibiting effect
- effect on proliferation of human fibroblasts, keratinocytes and endothelial cells [2]: inhibits the proliferation

Molecule: O=c1c(O)c(-c2ccc(O)c(O)c2)oc2cc(O)cc(O)c12 [quercetin]
- effect on proliferation of human neuroblastoma and breast carcinoma cells [1]: inhibiting effect
- effect on proliferation of human fibroblasts, keratinocytes and endothelial cells [2]: inhibits the proliferation

Molecule: Superoxide dismutase: Superoxide dismutase from bovine erythrocytes, superoxide scavenger comparison
- % control (HT-29; [5]): 90%
- dE mean (HT-29; [5]): 1.725
- % control (Caki-1; [5]): 97%
- dE mean (Caki-1; [5]): 1.442
- % control (SAOS-2; [5]): 98%
- dE mean (SAOS-2; [5]): 0.564
- % control (CMT-93; [5]): 92%
- dE mean (CMT-93; [5]): 0.326
- % control (SKMEL-2; [5]): 94%
- dE mean (SKMEL-2; [5]): 1.340
- cytostatic/cytotoxic action on the cell lines investigated, in words [3]: no cytostatic or cytotoxic effects
